Results taken from patent publication US7141553B2, “A3AR agonists for the treatment of inflammatory arthritis” (Can-Fite Biopharma Ltd. Israel, priority 2002, dated 2006).

Experiments:
Plasma half life in mice = assay type: in vivo, mouse
[1] = tested on: patients with active rheumatoid arthritis; experiment: Clinical trial in humans, effect on rheumatoid arthritis; assay type: in vivo, human; conditions: 0.1, 1 or 4 mg twice daily orally, up to 12 weeks; in at least half of 15 patients
Source text: Patients with active rheumatoid arthritis were chosen for the study. All chosen patients met the following criteria:
Rheumatoid arthritis patients that were included in the study, met the following inclusion criteria: • 1. Males and females 18 years of age or older • 2. Functional Class I, II, or III by the criteria of the American College of Rheumatology • 3. Active RA, as indicated by the presence of (a) ≧6 swollen joints; AND (b) ≧29 tender joints; AND at least one of he following: (c) Westergren ESR of ≧28 mm/hour; OR (d) CRP level of >2.0 mg/dL; OR (e) morning stiffness for >45 minutes • 4. History of unsuccessful treatment (documented intolerance or lack of efficacy as determined by the Investigator) with at least 1, but no more than 4, of the following disease modifying anti-rheumatic drugs (DMARDs): methotrexate, hydroxychloroquine, sulfasalazine, oral or injectable gold, azathioprine, leflunomide, minocycline, and penicillamine, alone or in combination Protocol
Patients included in the study were subjected to a 1 month washout period in which they ceased to take any DMARD. Following this one months washout the patients were administered twice daily with either with 0.1 mg, 1 mg of 4 mg of IB-MECA in a double-blind fashion. […]
Disease activity was assessed using standard criteria as laid down by the American College of Rheumatology (ACR).

[2] = tested on: adjuvant induced arthritis; experiment: Adjuvant arthritis model in Lewis rats; assay type: in vivo, rat
[3] = tested on: collagen-induced arthritis; experiment: Collagen-induced-arthritis (CIA) model in mice; assay type: in vivo, mouse
Experimental: Male DBA mice, aged 10 weeks, were injected SC with 100 μl of Type II collagen 200 μg in complete Freund's adjuvant (CFA). On day 21 a booster injection of the same emulsion was administered. Mice were inspected daily for symptoms of clinical arthritis.
The inflammatory intensity, presented as joint swelling, was measured by Caliper (Mitutoyo Co., Tokyo, Japan). Histopathological sections of these decalcified whole joints were stained with hematoxylin-eosin. Slides were screened for the following arthritic characteristics: inflammatory cell infiltration, synovial cell lining hyperplasia and pannus formation. The histological assessment of the knees inflammation intensity was divided to four parameters: • 1. Lymphatic follicle like formation—graded 0–4 • 2. Inflammatory cells infiltration—graded 0–4 • 3. Synovial cells hyperplasia—graded 0–4 • 4. Pannus formation—graded 0–4 The arithmetic sum of these four parameters above all together designated-“Total Arthritic Score” (Goldenberg et al, J. Rheumatol. 1: 5–11, 1983). The white blood cell (WBC) count and the serum levels of the pro-inflammatory cytokine TMF-α served as humoral markers of the immune system activation. Tumor necrosis factor-α sera level was determined, in accordance with the manufacturer's guidelines, by ELISA kit “Quantikine M” (R&D Systems, Minneapolis, Minn., USA). 4. Statistical Analysis
Male DBA mice were treated to produce collagen-induced-arthritis as described above. Each group contained 10 animals and each experiment was conducted at least three times.
IB-MECA (10 μg/kg) was orally administered by gavage, twice daily starting at onset of clinical arthritis. The […] control received vehicle only. The inflammatory intensity in the CIA model was determined in accordance with the increase in the mice hind paw's diameter, measured by caliper (Mitotoyo, Tokyo, Japan). The mean score in each experimental group was designated as the “Clinical Score”. […]
The assessment of all pathologic findings were performed blind (by L. R-W and M. H) using semi-quantitative grading scales of 0 to 4 for the following parameters: […]

healthy men = experiment: Repeat dose study in healthy men, safety and tolerability; assay type: in vivo, human
Experimental: Two clinical studies were carried out: a single dose study and a repeat dose study. Both studies were parallel-group, double-blind, dose-rising, and placebo-controlled in design.
In the single dose study, 15 healthy men (3 groups of 5) received a single oral dose of IB-MECA (1, 5 or 10 mg) or placebo. In each group, 1 subject received placebo. In the repeated dose study, 28 healthy men (4 groups of 7) received repeated oral doses of IB-MECA (2, 3, 4 or 5 mg) or placebo every 12 h for 7 days. In each group, 2 subjects received placebo.
Healthy young men, aged 18–45 years.
In the single dose study, a solution with IB-MECA powder in 30% Cremophor RH40 (BASF) was used. In the repeated dose study, an aqueous 0.5% methylcellulose suspension (Methocel A4M Premium, The Dow Chemical Company) was used. In both studies, the study medication was taken orally as a drink, followed by 50 ml of tap water.
The following procedures were done: • Safety assesment: laboratory assessments (routine biochemistry and urinalysis), physical examination, 12-lead ECG, ambulatory ECG, pulmonary function testing (FEV1), vital signs (semi-recumbent in the single dose study; semi-recumbent and standing in the repeat dose study). Adverse events were recorded throughout both studies. • Determination of IB-MECA blood level: in the single dose study blood samples for assay of IB-MECA were taken immediately before and at 0.25, 0.5, 1, 2, 4, 8, 12, 24, and 48 h after dosing; in the repeat dose study—blood samples were taken immediately before and at 0.25, 0.5, 1, 2, 4, 8, and 12 h after dosing on Day 1, before dosing on Days 2–6, and before and at 0.25, 0.5, 1, 2, 4, 8, 12, and 24 h after dosing on Day 7.
Data from all subjects who received IB-MECA were included in the analysis of safety and tolerability (adverse events and laboratory safety variables). Numerical data and parameters were summarised using means or medians, and other descriptive statistics, according to the type and distribution of the data.

With `CNC(=O)[C@H]1O[C@@H](n2cnc3c(NCc4cccc(I)c4)ncnc32)[C@H](O)[C@@H]1O` [IB-MECA, N6-(3-iodobenzyl)-adenosine-5′-N-methyl-uronamide] the half life (Plasma half life in mice) was 1.5 h, the “disease symptoms (ACR criteria)” value [1] was “significant improvement in disease symptoms” and the “inflammation as assessed by the inflammation intensity score” value (shortened to “inflammation as assessed”) ([2]; 1 μg/day PO, FIG. 1B) was “significant reduction”. The “histological picture of the joint” value ([2]; 10 μg a day, FIG. 3B, untreated shows destruction of synovial tissue and bone) was “appeared completely normal”, the “inflammation as assessed” value ([2]; 10 μg/kg PO a day, treatment from day 7 after disease induction, FIG. 1A) was “effective in abolishing almost completely the inflammation” and the appearance of paws ([2]; 10 μg/kg a day PO, untreated rat paws extremely swollen and red) was “normal appearing paws”. The “inflammation as assessed” value ([2]; 100 μg/kg PO a day, treatment from day 7 after disease induction, FIG. 1A) was “effective in abolishing almost completely the inflammation”, the “intensity of the arthritis” value ([3]; 10 μg/kg orally, day 21 difference significant p<0.02) was “reduced throughout the experimental period” and the “histology sections of joints” value ([3]; 10 μg/kg, FIG. 7C) was “minimal inflammatory changes”. For the same compound, the histology score ([3]; 10 μg/kg, p<0.01 vs control, FIG. 8) was 1.0±0.6, the safety profile (healthy men; 2-5 mg every 12 h for 7 days, vital signs, physical examination, FEV1, ECG) was “acceptable safety profile” and the heart rate (healthy men; Day 1 of repeated dosing, effect smaller on Day 7) was “dose-related increase in heart rate”. The tolerability (healthy men; repeat doses of up to 4 mg 12-hourly) was “safe and well tolerated”, the “adverse events within 12 h of dosing” value (healthy men; repeated doses of 5 mg 12-hourly) was 13 and the “adverse events within 12 h of dosing” value (healthy men; repeated doses of up to 4 mg 12-hourly) was 2. For the same compound, the maximal tolerated dose (healthy men; twice daily administration) was 4 mg.
